For the experiment, the target named is T1, hTAS1R1 H308A/rTAS1R3 (Homo sapiens, UniProt Q7RTX1, H308A).
T1 construct: UniProtKB number Q7RTX1–1); expressed in transfected cells; host or cells: HEK293T/17 (ATCC CRL-11268)
T1 sequence (Q7RTX1 21-841 H308A): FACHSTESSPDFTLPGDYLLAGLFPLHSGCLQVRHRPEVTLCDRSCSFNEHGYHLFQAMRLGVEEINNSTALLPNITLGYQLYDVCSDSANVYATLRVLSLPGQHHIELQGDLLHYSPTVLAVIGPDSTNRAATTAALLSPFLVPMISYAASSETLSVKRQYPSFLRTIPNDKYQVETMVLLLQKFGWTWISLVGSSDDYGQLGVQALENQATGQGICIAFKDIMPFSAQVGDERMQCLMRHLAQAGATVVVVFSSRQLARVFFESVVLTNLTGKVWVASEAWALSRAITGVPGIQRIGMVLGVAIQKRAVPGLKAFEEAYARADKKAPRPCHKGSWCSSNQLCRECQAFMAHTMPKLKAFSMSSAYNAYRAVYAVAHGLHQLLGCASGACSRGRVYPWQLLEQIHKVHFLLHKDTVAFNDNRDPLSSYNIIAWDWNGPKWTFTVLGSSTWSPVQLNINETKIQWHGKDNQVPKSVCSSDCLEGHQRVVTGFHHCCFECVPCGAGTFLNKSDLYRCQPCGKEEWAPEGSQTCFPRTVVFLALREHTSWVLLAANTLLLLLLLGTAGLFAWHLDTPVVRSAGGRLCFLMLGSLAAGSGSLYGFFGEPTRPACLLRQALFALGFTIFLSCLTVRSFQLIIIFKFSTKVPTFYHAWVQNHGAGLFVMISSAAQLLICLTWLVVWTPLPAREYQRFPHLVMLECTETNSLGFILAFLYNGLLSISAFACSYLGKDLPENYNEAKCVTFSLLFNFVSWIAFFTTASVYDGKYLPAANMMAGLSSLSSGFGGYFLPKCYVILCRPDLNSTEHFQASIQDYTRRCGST
T1 sequence (Q923K1 21-858 partner): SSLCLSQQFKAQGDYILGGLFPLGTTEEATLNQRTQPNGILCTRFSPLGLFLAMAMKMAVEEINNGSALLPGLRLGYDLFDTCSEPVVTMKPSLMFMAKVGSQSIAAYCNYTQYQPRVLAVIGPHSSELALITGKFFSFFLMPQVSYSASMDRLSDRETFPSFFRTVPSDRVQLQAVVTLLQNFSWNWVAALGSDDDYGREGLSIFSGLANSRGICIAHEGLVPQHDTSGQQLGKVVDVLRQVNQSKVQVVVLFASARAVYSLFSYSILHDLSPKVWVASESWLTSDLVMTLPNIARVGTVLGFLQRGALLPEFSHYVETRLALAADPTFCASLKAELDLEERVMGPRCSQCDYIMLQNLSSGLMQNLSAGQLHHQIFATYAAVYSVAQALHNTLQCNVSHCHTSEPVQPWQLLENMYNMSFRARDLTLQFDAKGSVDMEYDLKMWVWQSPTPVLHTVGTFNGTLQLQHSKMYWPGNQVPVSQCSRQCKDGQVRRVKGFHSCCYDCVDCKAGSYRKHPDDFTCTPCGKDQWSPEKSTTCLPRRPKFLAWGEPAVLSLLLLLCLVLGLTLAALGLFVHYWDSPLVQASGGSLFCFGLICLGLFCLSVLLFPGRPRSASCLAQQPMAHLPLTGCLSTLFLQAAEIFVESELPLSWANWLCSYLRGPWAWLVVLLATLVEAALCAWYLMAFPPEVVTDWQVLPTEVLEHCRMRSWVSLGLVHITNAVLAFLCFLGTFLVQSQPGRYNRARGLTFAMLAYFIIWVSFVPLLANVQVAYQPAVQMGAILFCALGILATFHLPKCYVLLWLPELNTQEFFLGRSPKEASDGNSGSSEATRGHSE
Kind of experiment: Calcium assay, hTAS1R1 mutant co-expressed with rTAS1R3. The class given is cell-based, rat.

Broadly, the EC50 is the concentration at which the effect is half-maximal. In the case of `N[C@@H](CCC(=O)N[C@@H](CS)C(=O)NCC(=O)O)C(=O)O` [GSH, γ-L-glutamyl-L-cysteinyl-glycine], the EC50 came out at 3.25 ± 0.225 mM. The “effect of the added compound (1 mM) on the response to L-Glu” value (H308A) is “synergy was observed”. For the same compound, for the setting “H308A, GSH”, the “Max ∆F/F0” value is listed as 0.42 ± 0.01 and the “R1 = mutant EC50/WT EC50” value came to 1.3.

Consider `CCCC(CCC)NC(=O)c1ccc2c(c1)OCO2` [S807, N-(heptan-4-yl)benzo[d][1,3]dioxole-5-carboxamide, reference compound], for which, where the note is “H308A”, the “response to the agonist alone, vs WT” value was “strongly affected”.

The record behind these values is paper PMC12615753, “Glutathione as a taste modulator: molecular mechanisms of interaction with umami and sweet taste receptors” (Food Chemistry: Molecular Sciences, 2025).
